Results published in US20060008512A1, “Composition and methods for improved animal performance” (priority 2004, published 2006).
Like-named read-outs stand apart in the source and are kept apart here.

System: Hy-Line W-36 White Leghorn hens
Experimental: Experiment 1. […] While acknowledging that injecting individual hens is commercially impractical (Webster, 2003), nevertheless an initial study was needed to establish the efficacy of T4 when it is delivered directly into the hens in precisely measured doses. The photoperiod was 17 hours of light per day (0330 hours to 2030 hours).

`N[C@@H](Cc1cc(I)c(Oc2cc(I)c(O)c(I)c2)c(I)c1)C(=O)O` [L-thyroxine, 3,5,3′,5′-tetraiodo-L-thyronine] was tested, and the Egg production (250 μg T4 per kg body weight for 12 consecutive days) was “did not reduce egg production significantly”, the “Onset of molt in all cages after the start of T4 injection” value (500 μg T4 Group) was 11 days and the “Day of T4 injection by which egg production ceased entirely” value (1,000 μg T4 Group) was ≤ 8 days. The “Onset of molt in all cages after the start of T4 injection” value (1,000 μg T4 Group) was 9 days, the Mortality (1,000 μg T4 Group, 2 of 8 hens, 9th and 10th day after start of injection) was 25% and the “Time to complete cessation of egg production” value (2,000 μg T4 per kg body weight for 3 consecutive days) was ≤ 6 days. For the same molecule, the Mortality (4,000 μg T4 Group, 1 of 4 hens, 8th day after start of injection) was 25%, the “Time to complete cessation of egg production” value (4,000 μg T4 per kg body weight for 3 consecutive days) was ≤ 4 days and the “End of Injections Body Weight” value (250 mcg/kg body wt i.m. 12 d) was 1300 g. For the same molecule, the “Initial Body Weight” value (250 mcg/kg body wt i.m. 12 d) was 1495 g, the Hen-day egg production (250 mcg/kg body wt i.m. 12 d from day 15, day 14) was 93.8% and the Hen-day egg production (250 mcg/kg body wt i.m. 12 d from day 15, day 16) was 87.5%. The Hen-day egg production (250 mcg/kg body wt i.m. 12 d from day 15, day 18) was 68.8%, the Hen-day egg production (250 mcg/kg body wt i.m. 12 d from day 15, day 20) was 56.3% and the Hen-day egg production (250 mcg/kg body wt i.m. 12 d from day 15, day 22) was 25.0%. It also gave a Hen-day egg production (250 mcg/kg body wt i.m. 12 d from day 15, day 24) of 31.3%, a Hen-day egg production (250 mcg/kg body wt i.m. 12 d from day 15, day 26) of 37.5% and a Hen-day egg production (250 mcg/kg body wt i.m. 12 d from day 15, day 28) of 31.3%. The Hen-day egg production (250 mcg/kg body wt i.m. 12 d from day 15, day 30) was 37.5%, the “Time after start of injecting until egg production significantly reduced” value (500 and 1,000 μg T4 Groups) was 4 days and the “End of Injections Body Weight” value (500 mcg/kg body wt i.m. 8 d) was 1299 g. For the same molecule, the “Initial Body Weight” value (500 mcg/kg body wt i.m. 8 d) was 1472 g, the Hen-day egg production (500 mcg/kg body wt i.m. 8 d from day 15, day 14) was 87.5% and the Hen-day egg production (500 mcg/kg body wt i.m. 8 d from day 15, day 16) was 93.8%. The Hen-day egg production (500 mcg/kg body wt i.m. 8 d from day 15, day 18) was 31.3%, the Hen-day egg production (500 mcg/kg body wt i.m. 8 d from day 15, day 20) was 31.3% and the Hen-day egg production (500 mcg/kg body wt i.m. 8 d from day 15, day 22) was 6.3%. It also gave a Hen-day egg production (500 mcg/kg body wt i.m. 8 d from day 15, day 24) of 6.3%, a Hen-day egg production (500 mcg/kg body wt i.m. 8 d from day 15, day 26) of 6.3% and a Hen-day egg production (500 mcg/kg body wt i.m. 8 d from day 15, day 28) of 6.3%. For the same molecule, the Hen-day egg production (500 mcg/kg body wt i.m. 8 d from day 15, day 30) was 25.0%, the “Size of regressed reproductive tracts at necropsy” value (1,000 and 4,000 μg T4 Groups) was ≤ 50 % normal size and the “End of Injections Body Weight” value (1,000 mcg/kg body wt i.m. 8 d) was 1167 g. For the same molecule, the “Initial Body Weight” value (1,000 mcg/kg body wt i.m. 8 d) was 1513 g, the Hen-day egg production (1,000 mcg/kg body wt i.m. 8 d from day 15, day 14) was 81.3% and the Hen-day egg production (1,000 mcg/kg body wt i.m. 8 d from day 15, day 16) was 68.8%. For the same molecule, the Hen-day egg production (1,000 mcg/kg body wt i.m. 8 d from day 15, day 18) was 31.3%, the Hen-day egg production (1,000 mcg/kg body wt i.m. 8 d from day 15, day 20) was 12.5% and the Hen-day egg production (1,000 mcg/kg body wt i.m. 8 d from day 15, day 22) was 0.0%. The Hen-day egg production (1,000 mcg/kg body wt i.m. 8 d from day 15, day 24) was 0.0%, the Hen-day egg production (1,000 mcg/kg body wt i.m. 8 d from day 15, day 26) was 0.0% and the Hen-day egg production (1,000 mcg/kg body wt i.m. 8 d from day 15, day 28) was 0.0%. The Hen-day egg production (1,000 mcg/kg body wt i.m. 8 d from day 15, day 30) was 0.0%, the “Onset of molt in all cages after the start of injection” value (2,000 and 4,000 μg T4 Groups) was 9 days and the “End of Injections Body Weight” value (2,000 mcg/kg body wt i.m. 3 d) was 1234 g. The “Initial Body Weight” value (2,000 mcg/kg body wt i.m. 3 d) was 1510 g, the Hen-day egg production (2,000 mcg/kg body wt i.m. 3 d from day 15, day 14) was 62.5% and the Hen-day egg production (2,000 mcg/kg body wt i.m. 3 d from day 15, day 16) was 87.5%. For the same molecule, the Hen-day egg production (2,000 mcg/kg body wt i.m. 3 d from day 15, day 18) was 87.5%, the Hen-day egg production (2,000 mcg/kg body wt i.m. 3 d from day 15, day 20) was 75.0% and the Hen-day egg production (2,000 mcg/kg body wt i.m. 3 d from day 15, day 22) was 50.0%. The Hen-day egg production (2,000 mcg/kg body wt i.m. 3 d from day 15, day 24) was 12.5%, the Hen-day egg production (2,000 mcg/kg body wt i.m. 3 d from day 15, day 26) was 0.0% and the Hen-day egg production (2,000 mcg/kg body wt i.m. 3 d from day 15, day 28) was 0.0%. The Hen-day egg production (2,000 mcg/kg body wt i.m. 3 d from day 15, day 30) was 0.0%, the “End of Injections Body Weight” value (4,000 mcg/kg body wt i.m. 3 d) was 1165 g and the “Initial Body Weight” value (4,000 mcg/kg body wt i.m. 3 d) was 1387 g. The Hen-day egg production (4,000 mcg/kg body wt i.m. 3 d from day 15, day 14) was 62.5%, the Hen-day egg production (4,000 mcg/kg body wt i.m. 3 d from day 15, day 16) was 87.5% and the Hen-day egg production (4,000 mcg/kg body wt i.m. 3 d from day 15, day 18) was 100.0%. The Hen-day egg production (4,000 mcg/kg body wt i.m. 3 d from day 15, day 20) was 87.5%, the Hen-day egg production (4,000 mcg/kg body wt i.m. 3 d from day 15, day 22) was 25.0% and the Hen-day egg production (4,000 mcg/kg body wt i.m. 3 d from day 15, day 24) was 0.0%. It also gave a Hen-day egg production (4,000 mcg/kg body wt i.m. 3 d from day 15, day 26) of 0.0%, a Hen-day egg production (4,000 mcg/kg body wt i.m. 3 d from day 15, day 28) of 0.0% and a Hen-day egg production (4,000 mcg/kg body wt i.m. 3 d from day 15, day 30) of 0.0%.
